Experiment: Dissolution in liquid (water, formula or milk)
Format: physicochemical
Protocol: The preferred form of the administration of the deoxyribonucleoside monophosphates is in the form of disodium salts of the deoxyribonucleoside monophosphates. […] Once administered, the deoxyribonucleoside monophosphates salts convert to the free acid form. By way of example, for some of the oral administration to human patients, 2000 mg each of dTMP Na2 and dCMP Na2 were dissolved in 25 ml of water.

Cc1cn([C@H]2C[C@H](O)[C@@H](COP(=O)([O-])[O-])O2)c(=O)[nH]c1=O.[Na+].[Na+] [dTMP Na2]
Dissolution in liquid (such as water, formula or milk): easily dissolved

Nc1ccn([C@H]2C[C@H](O)[C@@H](COP(=O)([O-])[O-])O2)c(=O)n1.[Na+].[Na+] [dCMP Na2]
Dissolution in liquid (such as water, formula or milk): easily dissolved

— US11633418B2, “Deoxyribonucleoside monophospate bypass therapy for mitochondrial DNA depletion syndrome” (priority 2015, dated 2023)
